The source of these data is publication PMC10107299, “Neutralizing the Impact of the Virulence Factor LecA from Pseudomonas aeruginosa on Human Cells with New Glycomimetic Inhibitors” (Angewandte Chemie (International Ed. in English), 2023).

Structures are written as SMILES. Like-named read-outs stand apart in the source and are kept apart here.

Test [1] addresses T1, LecA (Pseudomonas aeruginosa, UniProt Q05097).
T1 construct: made in house
Briefly: Direct binding to immobilized LecA by surface plasmon resonance (SPR). To be noted: for Relative potency r.p. (SPR): compared to respective monovalent compound in each series; for kon: SPR single-cycle kinetics, 25 °C, N=3 (I1 N=1). The procedure:
K d values were oscillating with the number of methylene units present in the linker, presumably linked to the zig‐zag geometry of the hydrocarbon chain.
Expression and purification of LecA as well as competitive binding by fluorescence polarization was performed as described by Joachim et al..[9] […]
Surface plasmon resonance experiments were performed on a BIACORE X100 instrument (GE Healthcare) at 25 °C as described by Zahorska et. al..[8] Averages and standard deviations were calculated from three independent experiments. […]
Figure S3: SPR of divalent LecA ligands from benzene series. Sensorgrams obtained from SPR single-cycle kinetics experiments. Five different concentrations of each compound (0, 10, 50, 100, 200 nM) were sequentially injected to obtain the experimental sensorgrams (blue lines), which were then fitted by a 1:1 model (orange) on BIACORE evaluation software. […]
Figure S4: SPR of divalent LecA ligands from pyridine and sulfonated series. Sensorgrams obtained from SPR single-cycle kinetics experiments. Five different concentrations of each compound (0, 10, 50, 100, 200 nM) were sequentially injected to obtain the experimental sensorgrams (blue lines), which were then fitted by a 1:1 model (orange) on BIACORE evaluation software.
(also on this page, place not known: Response (RU)0 Response (RU)0 Response (RU) Response (RU) Response (RU) Response (RU) 030060090012001500) […]
In general terms: In SPR one partner is held on a chip, and binding of the other changes the refractive index at the surface.

The target of test [2] is T1, LecA. Briefly: Competitive binding assay based on fluorescence polarization. The method, then:
All synthesized galactosides were then evaluated for LecA inhibition using a competitive binding assay based on fluorescence polarization (Figure S1).[24]
Expression and purification of LecA as well as competitive binding by fluorescence polarization was performed as described by Joachim et al..[9] The assay was performed in TBS/Ca2+ buffer (20 mM Tris, 137 mM NaCl, 2.6 mM KCl at pH 7.4 supplemented with 1 mM CaCl2) in presence of 25% DMSO. Averages and standard deviations were calculated from at least three independent experiments. […]
RR OR In h i b i to r [µ M ]
R R In h i b i to r [µ M ] […]
R In h i b i to r [µ M ] 30 L2
30 F2 40 K2 In h i b i to r [µ M ] […]
In h i b i to r [µ M ] In h i b i to r [µ M ]
Figure S1: Evaluation of amide divalent LecA ligands in a competitive binding assay based on fluorescence […]
representative experiment is shown or each series. Averages and standard deviations from at least three independent titrations of triplicates each.
[…] Fluorescence polarization [mP] -1 0 1 2 3 0 1001010 Me-α-Gal pNO2-Ph-β-Gal 1000 Inhibitor [µM] Fluorescence polarization [mP])
Background: Polarisation of emitted light reports the rotation of a fluorescent probe.

T1 sequence (Q05097 whole entry): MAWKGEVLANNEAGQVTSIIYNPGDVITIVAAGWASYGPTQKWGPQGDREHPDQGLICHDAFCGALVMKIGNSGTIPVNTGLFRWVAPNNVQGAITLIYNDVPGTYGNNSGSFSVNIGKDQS

As for `COc1ccc(NC(=O)/C=C/c2ccc(O[C@@H]3O[C@H](CO)[C@H](O)[C@H](O)[C@H]3O)cc2)cc1` [Compound A1], at LecA [1], the affinity, expressed as Kd, was 5.21 ± 0.6 µM and the “Relative potency r.p. (SPR)” value was 1. At LecA [2], the IC50 was determined as 18.8 ± 6.6 µM.
Take `COc1ccc(NC(=O)CCc2ccc(O[C@@H]3O[C@H](CO)[C@H](O)[C@H](O)[C@H]3O)cc2)cc1` [Compound A2]: on LecA [1], binding was characterised by a dissociation constant (Kd) of 5.38 ± 0.09 µM and the “Relative potency r.p. (SPR)” value is reported as 1. On LecA [2], this compound displayed an IC50 of 18.9 ± 5.5 µM.
On to `O=C(/C=C/c1ccc(O[C@@H]2O[C@H](CO)[C@H](O)[C@H](O)[C@H]2O)cc1)Nc1ccc(Oc2ccc(NC(=O)/C=C/c3ccc(O[C@@H]4O[C@H](CO)[C@H](O)[C@H](O)[C@H]4O)cc3)cc2)cc1` [Compound B1], for which, on LecA [1], the dissociation constant Kd is 0.0673 ± 0.0094 µM, the koff was 0.00596 ± 0.00206 s⁻¹, the kon is 89 ± 29 x10^3/Ms and the “Relative potency r.p. (SPR)” value is reported as 77. In addition, on LecA [2], the IC50 was found to be 6.6 ± 1.5 µM.
Turning to `O=C(CCc1ccc(O[C@@H]2O[C@H](CO)[C@H](O)[C@H](O)[C@H]2O)cc1)Nc1ccc(Oc2ccc(NC(=O)CCc3ccc(O[C@@H]4O[C@H](CO)[C@H](O)[C@H](O)[C@H]4O)cc3)cc2)cc1` [Compound B2], at LecA [1], the equilibrium dissociation constant (Kd) was 0.0221 ± 0.0003 µM, the off-rate (koff) was 0.00349 ± 8e-05 s⁻¹, the kon is listed as 158 ± 5.7 x10^3/Ms and the “Relative potency r.p. (SPR)” value worked out at 244. At LecA [2], the half-maximal inhibitory concentration (IC50) is 3.6 ± 1.3 µM.
Consider `O=C(/C=C/c1ccc(O[C@@H]2O[C@H](CO)[C@H](O)[C@H](O)[C@H]2O)cc1)Nc1ccc(OCOc2ccc(NC(=O)/C=C/c3ccc(O[C@@H]4O[C@H](CO)[C@H](O)[C@H](O)[C@H]4O)cc3)cc2)cc1` [Compound C1], for which, on LecA [1], the dissociation constant (Kd) turned out to be 0.0377 ± 0.011 µM, the koff was found to be 0.00379 ± 0.00089 s⁻¹, the on-rate constant (kon) is listed as 110 ± 52 x10^3/Ms and the “Relative potency r.p. (SPR)” value was 138. At LecA [2], this compound had an IC50 of 4.7 ± 2.6 µM.
In the case of `O=C(CCc1ccc(O[C@@H]2O[C@H](CO)[C@H](O)[C@H](O)[C@H]2O)cc1)Nc1ccc(OCOc2ccc(NC(=O)CCc3ccc(O[C@@H]4O[C@H](CO)[C@H](O)[C@H](O)[C@H]4O)cc3)cc2)cc1` [Compound C2], on LecA [1], the dissociation constant Kd is 0.0153 ± 0.0006 µM, the off-rate constant (koff) came out at 0.00462 ± 0.0002 s⁻¹, the on-rate constant (kon) is recorded as 303 ± 20 x10^3/Ms and the “Relative potency r.p. (SPR)” value came to 352. The compound also had an IC50 at LecA [2] of 4.2 ± 1.7 µM.
In the case of `O=C(/C=C/c1ccc(O[C@@H]2O[C@H](CO)[C@H](O)[C@H](O)[C@H]2O)cc1)Nc1ccc(OCCCOc2ccc(NC(=O)/C=C/c3ccc(O[C@@H]4O[C@H](CO)[C@H](O)[C@H](O)[C@H]4O)cc3)cc2)cc1` [Compound E1], at LecA [1], the equilibrium dissociation constant (Kd) was 0.156 ± 0.038 µM, the dissociation rate constant (koff) came to 0.00251 ± 0.00022 s⁻¹, the association rate constant (kon) is on record as 16.9 ± 5.2 x10^3/Ms and the “Relative potency r.p. (SPR)” value came out at 33. Also, the concentration for half-maximal inhibition (IC50) at LecA [2] is 4.5 ± 1.6 µM.
With `O=C(CCc1ccc(O[C@@H]2O[C@H](CO)[C@H](O)[C@H](O)[C@H]2O)cc1)Nc1ccc(OCCCOc2ccc(NC(=O)CCc3ccc(O[C@@H]4O[C@H](CO)[C@H](O)[C@H](O)[C@H]4O)cc3)cc2)cc1` [Compound E2], on LecA [1], the dissociation constant (Kd) is 0.0185 ± 0.0015 µM, the off-rate (koff) came out at 0.00345 ± 0.00013 s⁻¹, the kon is listed as 187 ± 13 x10^3/Ms and the “Relative potency r.p. (SPR)” value worked out at 291. Further, on LecA [2], the IC50 stood at 3.5 ± 1 µM.
As to `O=C(/C=C/c1ccc(O[C@@H]2O[C@H](CO)[C@H](O)[C@H](O)[C@H]2O)cc1)Nc1ccc(OCCCCOc2ccc(NC(=O)/C=C/c3ccc(O[C@@H]4O[C@H](CO)[C@H](O)[C@H](O)[C@H]4O)cc3)cc2)cc1` [Compound F1], at LecA [1], binding was put at a Kd of 2.25 ± 0.3 µM, the koff was determined as 0.00388 ± 0.00043 s⁻¹, the on-rate constant (kon) is recorded as 1.75 ± 0.3 x10^3/Ms and the “Relative potency r.p. (SPR)” value is given as 2. The compound also returned a 50% inhibitory concentration (IC50) at LecA [2] of 7.9 ± 4.8 µM.
Take `O=C(CCc1ccc(O[C@@H]2O[C@H](CO)[C@H](O)[C@H](O)[C@H]2O)cc1)Nc1ccc(OCCCCOc2ccc(NC(=O)CCc3ccc(O[C@@H]4O[C@H](CO)[C@H](O)[C@H](O)[C@H]4O)cc3)cc2)cc1` [Compound F2]: at LecA [1], the Kd was found to be 0.0231 ± 0.011 µM, the koff was determined as 0.00366 ± 0.00042 s⁻¹, the kon is 175 ± 55 x10^3/Ms and the “Relative potency r.p. (SPR)” value was 233. Also, the IC50 at LecA [2] was found to be 4.4 ± 1.5 µM.
With `O=C(/C=C/c1ccc(O[C@@H]2O[C@H](CO)[C@H](O)[C@H](O)[C@H]2O)cc1)Nc1ccc(OCCCOc2ccc(NC(=O)/C=C/c3ccc(O[C@@H]4O[C@H](CO)[C@H](O)[C@H](O)[C@H]4O)cc3)cn2)nc1` [Compound I1], at LecA [1], the Kd was determined as 0.0402 µM, the dissociation rate constant (koff) turned out to be 0.00227 s⁻¹, the kon was 68200 M⁻¹ s⁻¹ and the “Relative potency r.p. (SPR)” value is given as 74. Further, the IC50 at LecA [2] stood at 6.6 ± 4 µM.
Take `O=[N+]([O-])c1ccc(O[C@@H]2O[C@H](CO)[C@H](O)[C@H](O)[C@H]2O)cc1` [pNO2-Ph-β-Gal, reference compound]: the IC50 on LecA [2] (TBS/Ca2+ buffer, 25% DMSO, divalent ligands at lower assay limit, read-out: IC50 (LecA competitive binding, fluorescence polarization)) was 39.8 ± 12 µM.

In general, Kd refers to the equilibrium constant for the complex coming apart. A higher Kd goes with a looser complex. What is called IC50 is the concentration that gives 50% inhibition. What is called koff is the first-order rate constant of dissociation. Read a low koff as slow dissociation. As a reminder, the kon is the rate constant with which the complex forms. Low values mean slow association, high ones fast association.
